Values quoted from earlier work in patent US20100197018A1, “USE OF SUBSTRATES AS PHARMACOLOGICAL CHAPERONES” (AMICUS THERAPEUTICS, INC., priority 2007, published 2010).
Read-outs that look alike come from different tables or passages of the source.

What was measured:
[1] = target: T1, N-acetyl-glucosamine-6-sulfate sulfatase (6S) Form A (Homo sapiens, UniProt P15586); conditions: for Relative catalytic efficiency*: kcat./Km calculated relative to a value for GlcNAc6S = 1; for pH optimum: Table 6; for Ratio of catalytic efficiencies: form A/form B: form A over form B; for Relative catalytic efficiency*, value in parentheses: relative to GlcNAc6S = 1
T1 sequence (P15586 37-552): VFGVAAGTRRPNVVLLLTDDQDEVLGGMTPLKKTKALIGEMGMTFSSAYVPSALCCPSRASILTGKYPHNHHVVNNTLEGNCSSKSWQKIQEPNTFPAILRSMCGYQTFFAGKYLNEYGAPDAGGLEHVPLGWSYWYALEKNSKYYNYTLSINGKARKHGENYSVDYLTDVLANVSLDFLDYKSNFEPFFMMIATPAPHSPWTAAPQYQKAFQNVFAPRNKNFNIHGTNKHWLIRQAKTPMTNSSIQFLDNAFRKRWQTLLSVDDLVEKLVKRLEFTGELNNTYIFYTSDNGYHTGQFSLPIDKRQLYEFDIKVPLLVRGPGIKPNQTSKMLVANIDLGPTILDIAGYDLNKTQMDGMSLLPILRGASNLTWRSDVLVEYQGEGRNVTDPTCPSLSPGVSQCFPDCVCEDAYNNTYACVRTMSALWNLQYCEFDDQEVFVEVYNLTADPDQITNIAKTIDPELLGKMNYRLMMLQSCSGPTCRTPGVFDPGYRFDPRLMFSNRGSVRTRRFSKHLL

[2] = target: T2, N-acetyl-glucosamine-6-sulfate sulfatase (6S) Form B (Homo sapiens, UniProt P15586)
T2 sequence (P15586 37-552): T1 sequence (P15586 37-552)

[3] = target: T3, heparan-N-sulfatase (Homo sapiens, UniProt P51688); conditions: for Km / kcat. (turnover number) / Relative catalytic efficiency*: 37°; for Relative catalytic efficiency*: GlcNS = 1.00
T3 sequence (P51688 21-502): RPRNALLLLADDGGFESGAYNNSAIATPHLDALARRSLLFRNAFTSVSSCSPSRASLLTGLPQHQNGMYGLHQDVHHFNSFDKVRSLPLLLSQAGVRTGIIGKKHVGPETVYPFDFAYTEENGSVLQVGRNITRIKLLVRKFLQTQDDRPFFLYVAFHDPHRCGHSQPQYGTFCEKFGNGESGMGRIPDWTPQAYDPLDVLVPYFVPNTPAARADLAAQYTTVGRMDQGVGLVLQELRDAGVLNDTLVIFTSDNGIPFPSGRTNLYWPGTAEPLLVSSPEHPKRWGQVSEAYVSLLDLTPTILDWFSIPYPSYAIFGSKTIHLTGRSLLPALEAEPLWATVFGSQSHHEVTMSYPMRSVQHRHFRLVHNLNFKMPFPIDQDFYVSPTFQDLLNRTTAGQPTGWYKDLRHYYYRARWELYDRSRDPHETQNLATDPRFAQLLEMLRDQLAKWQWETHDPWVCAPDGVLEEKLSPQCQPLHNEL

[4] = in vivo
[5] = target: BACEI (Homo sapiens, UniProt P56817); conditions: low concentrations
[6] = Form A, parentheses not explained
[7] = Form A, second line of the substrate, parentheses not explained
[8] = Form A, second line of the substrate, parentheses not explained, read-out: Km, value in parentheses
[9] = second line of the substrate, parentheses not explained
[10] = second line of the substrate, parentheses not explained, read-out: Km, value in parentheses
[11] = pH 5.6 (second line of the substrate)
[12] = pH: GlcNS-Ido 6.7, GlcNS-Ido2S 5.5, GlcNS-IdOA 5.6, GlcNS-IdoA-GlcNS-IdOA 5.6, GlcNS-IdoA2S-anM6S 3.6, GlcNS6S-Ido 4.2, GlcNS6S-Ido2S 3.8, GlcNS6S-IdOA 4.2

Chain of BACEI (P56817 46-457 limits assumed): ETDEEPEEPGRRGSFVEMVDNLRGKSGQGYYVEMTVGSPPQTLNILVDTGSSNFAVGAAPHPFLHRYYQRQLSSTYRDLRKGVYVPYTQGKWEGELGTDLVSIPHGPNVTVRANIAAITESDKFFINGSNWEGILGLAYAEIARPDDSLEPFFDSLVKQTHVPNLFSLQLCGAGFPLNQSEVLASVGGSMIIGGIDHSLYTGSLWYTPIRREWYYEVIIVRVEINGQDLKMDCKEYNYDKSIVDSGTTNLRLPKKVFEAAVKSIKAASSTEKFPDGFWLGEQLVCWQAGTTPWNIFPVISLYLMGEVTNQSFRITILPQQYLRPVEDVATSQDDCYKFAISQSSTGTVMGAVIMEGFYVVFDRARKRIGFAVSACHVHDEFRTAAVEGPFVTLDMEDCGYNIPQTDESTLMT

Row | Compound | pH optimum of 6S activity [1] | kcat. (turnover number) ([1]; Form A) | Relative catalytic efficiency* ([1]; Form A) | Km ([1]; Form A, read-out: Km) | pH optimum [1] | Ratio of catalytic efficiencies: form A/form B [1] | Km ([2]; read-out: Km) | Relative catalytic efficiency* ([3]; pH (optimum)) | Km [3, 12] | kcat. (turnover number) [3, 12] | other results
1 | O=C[C@H](O)[C@@H](O)[C@H](O)[C@H](O)COS(=O)(=O)O [Glc6S, glucose 6-sulfate] | 5.7 | 0.585 mol/min per mol of enzyme | 0.4 | 62.5 µM | 5.7 | 1.3 | 62.5 µM | – | – | – | Kcat [1]: 0.585 mol/min/mol enzyme; Km ([1]; read-out: Km): 62.5 µM
2 | CC(=O)N[C@H]1C(O)O[C@H](COS(=O)(=O)O)[C@@H](O)[C@@H]1O (some centres unmarked) [GlcNAc6S, N-acetyl-glucosamine 6-sulfate] | 5.7 | 0.165 mol/min per mol of enzyme | 1.0 | 7.1 µM | 5.7 | 2.1 | 10 µM | – | – | – | decrease in the Km ([1]; addition of a 2-acetamido group to Glc6S): 6-9 fold; effect on Kcat ([1]; relative to the parent substrate (Glc6S for GlcNAc6S; GlcNAc6S for GlcNAc6S-Ido)): decrease in Kcat
3 | CC(=O)N[C@H]1[C@@H](O[C@@H]([C@H](O)[C@@H](O)CO)[C@@H](O)C(=O)O)O[C@H](COS(=O)(=O)O)[C@@H](O)[C@@H]1O [GlcNAc6S-IdOA, O-(α-N-acetylglucosamine 6-sulphate)-(1-3)-L-idonic acid] | 5.0 | 7.90 mol/min per mol of enzyme | 31 | 11.1 µM | 5.0 | 2.4 | 14.3 µM | – | – | – | Relative catalytic efficiency*, value in parentheses [1, 6]: (29); kcat. (turnover number), value in parentheses [1, 7]: (6.79) mol/min per mol of enzyme; Km [1, 8]: 10 µM; Ratio of catalytic efficiencies: form A/form B, value in parentheses [1, 9]: (2.8); pH optimum, value in parentheses [1, 9]: (5.0); Km [2, 10]: 13.2 µM
4 | O=C(O)[C@H](O)[C@@H](O[C@H]1O[C@H](COS(=O)(=O)O)[C@@H](O)[C@H](O)[C@H]1NS(=O)(=O)O)[C@H](O)[C@@H](O)CO [GlcNS6S-IdOA, O-(α-2-sulphaminoglucosamine 6 sulphate)-(1-3)-L-idonic acid] | – | 2.46 mol/min per mol of enzyme | 13 | 8 µM | 5.0 | 2.2 | 8.3 µM | 33 | 2.5 µM | 0.105 mol/min per mol of enzyme | Km [3, 11]: 2.4 µM; kcat. (turnover number) [3, 11]: 0.088 mol/min per mol of enzyme; Relative catalytic efficiency* [3, 11]: 50; Relative catalytic efficiency*, value in parentheses [1, 6]: (9.8); kcat. (turnover number), value in parentheses [1, 7]: (1.725) mol/min per mol of enzyme; Km [1, 8]: 7.6 µM; Ratio of catalytic efficiencies: form A/form B, value in parentheses [1, 9]: (2.5); pH optimum, value in parentheses [1, 9]: (5.0); Km [2, 10]: 6.6 µM
5 | O=C[C@H](OS(=O)(=O)O)[C@@H](O)[C@H](O[C@H]1O[C@H](COS(=O)(=O)O)[C@@H](O)[C@H](O)[C@H]1NS(=O)(=O)O)[C@@H](O)CO [GlcNS6S-Ido2S, O-(α-2-sulphaminoglucosamine 6-sulphate)-(1-4)-L-idose 2-sulphate] | – | 0.201 mol/min per mol of enzyme | 3.8 | 2.3 µM | 4.2 | – | – | 388 | 4.1 µM | 3.333 mol/min per mol of enzyme | –
6 | O=C[C@H](O)[C@@H](O)[C@H](O[C@H]1O[C@H](COS(=O)(=O)O)[C@@H](O)[C@H](O)[C@H]1NS(=O)(=O)O)[C@@H](O)CO [GlcNS6S-Ido, O-(α-2-sulphaminoglucosamine 6-sulphate)-(1-4)-L-idose] | – | 0.518 mol/min per mol of enzyme | 2.1 | 10.8 µM | 4.8 | 1.9 | 9.2 µM | 28 | 3 µM | 0.061 mol/min per mol of enzyme | –
7 | heparan sulphate | – | – | – | – | – | – | – | – | – | – | oral activity [4]: orally active
8 | heparin | – | – | – | – | – | – | – | – | – | – | effect on partially active BACEI [5]: stimulate partially active BACEI

Further lines, with some results ahead:

Row | pH optimum of 6S activity [1] | kcat. (turnover number) ([1]; Form A) | Relative catalytic efficiency* ([1]; Form A) | Km ([1]; Form A, read-out: Km) | pH optimum [1] | Ratio of catalytic efficiencies: form A/form B [1] | Km ([2]; read-out: Km) | Relative catalytic efficiency* ([3]; pH (optimum)) | Km [3, 12] | kcat. (turnover number) [3, 12] | Compound | other results
9 | – | – | – | – | – | – | – | 67193 | 3.8 µM | 186 mol/min per mol of enzyme | O=C(O)[C@@H]1O[C@@H](O[C@H]2[C@H](O)[C@@H](CO)O[C@@H]2COS(=O)(=O)O)[C@H](OS(=O)(=O)O)[C@@H](O)[C@@H]1O[C@H]1O[C@H](CO)[C@@H](O)[C@H](O)[C@H]1NS(=O)(=O)O [GlcNS-IdoA2S-anM6S, O-α-2-sulphaminoglucosamine)-(1-4) O-L-(α-iduronic-acid 2-sulphate)-(1-4)-O-D-(2,5)-anhydro-mannitol 6-sulphate] | Km [3, 11]: 5.3 µM; kcat. (turnover number) [3, 11]: 117 mol/min per mol of enzyme; Relative catalytic efficiency* [3, 11]: 30237
10 | – | – | – | – | – | – | – | 6927 | 10.3 µM | 52 mol/min per mol of enzyme | O=C(O)[C@H](O)[C@@H](O[C@H]1O[C@H](CO)[C@@H](O[C@@H]2O[C@@H](C(=O)O)[C@@H](O[C@H]3O[C@H](CO)[C@@H](O)[C@H](O)[C@H]3NS(=O)(=O)O)[C@H](O)[C@H]2O)[C@H](O)[C@H]1NS(=O)(=O)O)[C@H](O)[C@@H](O)CO [GlcNS-IdoA-GlcNS-IdOA, O-(α-2-sulphaminoglucosamine)-(1-4)-L-O-(α-iduronic acid)-(1-4)-O-D-(α-2-sulphaminoglucosamine)-(1-3)-L-idonic acid] | pH optimum of the enzyme for the substrate ([3]; purified enzyme): 5.5
